Experimental data: ChEMBL document CHEMBL1151978, “Epiquinamide: a poison that wasn't from a frog that was” (J Nat Prod, 2009)
Active and inactive are the calls of the source. The rule behind the calls is not given here.

Tests used:
[1] = molecular target: T1, Neuronal acetylcholine receptor; alpha3/beta4 (Rattus norvegicus) (UniProt P04757+P12392); experiment: Inhibition of rat alpha3beta4 nicotinic acetylcholine receptor activation expressed in HEK293 cells assessed as intracellular calcium level at 500 uM by fluorescence assay; assay type: cell-based
[2] = molecular target: T2, Neuronal acetylcholine receptor; alpha4/beta2 (Rattus norvegicus) (UniProt P09483+P12390); experiment: Displacement of [3H]epibatidine from alpha4beta2 nicotinic acetylcholine receptor in rat cerebral cortical membrane at 100 uM; assay type: cell membranes
[3] = molecular target: T1, Neuronal acetylcholine receptor; alpha3/beta4 (Rattus norvegicus); experiment: Inhibition of rat alpha3beta4 nicotinic acetylcholine receptor activation expressed in HEK293 cells assessed as intracellular calcium level up to 100 uM by fluorescence assay; assay type: cell-based
[4] = molecular target: T2, Neuronal acetylcholine receptor; alpha4/beta2 (Rattus norvegicus); experiment: Displacement of [3H]epibatidine from alpha4beta2 nicotinic acetylcholine receptor in rat cerebral cortical membrane up to 100 uM; assay type: cell membranes

| SMILES | Activity [1] | Activity [2] | Activity [3] | Activity [4] |
| --- | --- | --- | --- | --- |
| O=[N+]([O-])[C@H]1CCCN2CCCC[C@H]12 | inactive | inactive |  |  |
| O=C(O)[C@@H]1CCCN2CCCC[C@H]12 |  |  | inactive | inactive |
